In the NIST ThermoML archive (doi:10.1016/j.jct.2009.08.009):

Assay: xn = mol fraction of the nth substance listed
Conditions: 101 kPa, Liquid; for viscosity: Capillary tube (Ostwald / Ubbelohde) method; for speed of sound: Sing-around technique in a fixed-path interferometer; for mass density: Vibrating tube method

CCOCCOCCO [3,6-dioxa-1-octanol] + CCCCCCO
Conditions	mass density [kg/m3]	speed of sound [m/s]	viscosity [mPa·s]
293.15 K, x1 = 0.0515	828.146	1322.4	4.442
293.15 K, x1 = 0.1039	837.651	1324.9	4.111
293.15 K, x1 = 0.1456	845.454	1327.5	3.932
293.15 K, x1 = 0.2078	857.041	1331.1	3.714
293.15 K, x1 = 0.2501	864.989	1334.2	3.614
293.15 K, x1 = 0.3127	876.967	1338.7	3.482
293.15 K, x1 = 0.3517	884.493	1342.1	3.423
293.15 K, x1 = 0.5241	918.471	1358.7	3.279
293.15 K, x1 = 0.6227	938.481	1370.5	3.308
293.15 K, x1 = 0.7217	959.157	1384.3	3.352
293.15 K, x1 = 0.8227	980.826	1400.4	3.384
293.15 K, x1 = 0.915	1000.91	1416.4	3.588
293.15 K, x1 = 1	–	–	3.626
298.15 K, x1 = 0.0515	824.518	1305.4	3.906
298.15 K, x1 = 0.1039	833.976	1308	3.655
298.15 K, x1 = 0.1456	841.738	1310.6	3.495
298.15 K, x1 = 0.2078	853.267	1314.3	3.352
298.15 K, x1 = 0.2501	861.179	1317.4	3.237
298.15 K, x1 = 0.3127	873.107	1322	3.121
298.15 K, x1 = 0.3517	880.591	1325.3	3.066
298.15 K, x1 = 0.5241	914.427	1341.9	2.951
298.15 K, x1 = 0.6227	934.36	1353.8	2.965
298.15 K, x1 = 0.7217	954.955	1367.5	3.009
298.15 K, x1 = 0.8227	976.55	1383.5	3.054
298.15 K, x1 = 0.915	996.56	1399.5	3.235
298.15 K, x1 = 1	–	–	3.278
303.15 K, x1 = 0.0515	820.874	1288.7	3.381
303.15 K, x1 = 0.1039	830.282	1291.3	3.154
303.15 K, x1 = 0.1456	838.004	1293.9	3.026
303.15 K, x1 = 0.2078	849.482	1297.6	2.879
303.15 K, x1 = 0.2501	857.352	1300.7	2.809
303.15 K, x1 = 0.3127	869.225	1305.3	2.726
303.15 K, x1 = 0.3517	876.678	1308.7	2.682
303.15 K, x1 = 0.5241	910.37	1325.3	2.584
303.15 K, x1 = 0.6227	930.226	1337.1	2.605
303.15 K, x1 = 0.7217	950.745	1350.8	2.647
303.15 K, x1 = 0.8227	972.261	1366.7	2.693
303.15 K, x1 = 0.915	992.202	1382.6	2.801
303.15 K, x1 = 1	–	–	2.862
308.15 K, x1 = 0.0515	817.198	1272.1	2.901
308.15 K, x1 = 0.1039	826.564	1274.7	2.72
308.15 K, x1 = 0.1456	834.246	1277.3	2.631
308.15 K, x1 = 0.2078	845.669	1280	2.503
308.15 K, x1 = 0.2501	853.504	1284.2	2.443
308.15 K, x1 = 0.3127	865.322	1288.8	2.374
308.15 K, x1 = 0.3517	872.742	1292.1	2.342
308.15 K, x1 = 0.5241	906.299	1308.8	2.266
308.15 K, x1 = 0.6227	926.073	1320.6	2.278
308.15 K, x1 = 0.7217	946.516	1334.2	2.297
308.15 K, x1 = 0.8227	967.953	1350	2.349
308.15 K, x1 = 0.915	987.826	1365.8	2.445
308.15 K, x1 = 1	–	–	2.507

CCCCCCCCO [octan-1-ol] + CCOCCOCCO
x2 = 0
Conditions	viscosity [mPa·s]
293.15 K	8.309
298.15 K	7.143
303.15 K	5.969
308.15 K	5.009

CCCCCCO [hexan-1-ol] + CCOCCOCCO
x2 = 0
Conditions	viscosity [mPa·s]
293.15 K	4.963
298.15 K	4.439
303.15 K	3.675
308.15 K	3.108
